{"source": "patent US8372808B2", "about": "“Suppression of glial fibrillary acidic protein” (Wisconsin Alumni Research Foundation, priority 2008, dated 2013)", "key": {"[1]": {"test_system": "2.2 kb human GFAP promoter", "test": "hGFAP promoter luciferase activity assay in 172.9 cells (primary astrocytes from dual luciferase transgenic mice)", "type": "cell-based", "experimental": "Cell-based assays were performed as four different screens using enriched cortical primary astrocyte cultures developed from transgenic mice expressing both firefly and Renilla luciferase reporter genes were generated. Briefly, the'firefly luciferase was placed under the control of a 2.2 kb human GFAP promoter to monitor GFAP transcription, and the Renilla luciferase was placed under the control of a 0.5 kb human GAPDH (glyceraldehyde 3-phosphate dehydrogenase) promoter to monitor transcription of a housekeeping gene for signal normalization. See section B, below for more detail regarding the development of transgenic mouse strains. Cells used in the following examples (e.g., the cortical primary astrocyte cells termed “172.9 cells,” described below) were developed from the transgenic mice described in section B.\nBriefly, the cortices from individual pups were freed of meninges and placed into DMEM (Gibco) without serum, mechanically disassociated into single cells, suspended in medium containing DMEM supplemented with 10% fetal bovine serum (FBS; Hyclone), 100 U/ml penicillin, 100 μg/ml streptomycin (Gibco), seeded into T25 flasks (one brain per flask), and maintained in a humidified 5% CO2 atmosphere at 37° C. […] Medium was changed every 3 days. At 14-16 days in vitro (DIV), the flasks were shaken overnight at 200 rpm to remove oligodendrocytes and microglia. […] The cells were then suspended in DMEM with 10% FBS and plated (“passage 2”) on either 35 mm dishes, […], or 96-well plates (Corning) as needed. Cells were grown for varying days in vitro (DIV) at passage 2 and then used for various experiments. Tissue culture dishes and plates were pre-coated with 100 μg/ml poly-L-lysine for 1 h in a humidified 5% CO2 atmosphere at 37° C., and then allowed to air dry. […] Cell density was measured with the Vi-CELL cell counter (Beckman Coulter) or hemocytometer by the trypan-blue exclusion method. For simplicity, cells are referred to as “172.9 cells.”\nBriefly, 172.9 cells were plated on poly-L coated white 96-well plates at a density of 5000 cells per well, in 100 μl DMEM with 10% FBS. At twenty-four hours, cells were exposed to the different compounds at a final concentration of 10 μM (diluted from a 50 mM stock) prepared in new medium (DMEM with 10% FBS). […] After exposure to compounds, luciferase activity in the primary and secondary screenings was determined by adding 30 μl of Bright-Glo™ reagent (Promega) to the 100 μl of media and cells of each well in the white 96-well plates with the Biomek® FX liquid handler (Beckman Coulter). After incubation for 1 minute at room temperature, signals were measured with the Safire 2 plate reader using Magellan™ software (Tecan). Other specific methods and equipment are known in the art and can be used to measure luciferase expression levels. This assay method is termed the “hGFAP promoter luciferase activity assay.” A reduction in luciferase expression as determined by this assay is termed “hGFAP promoter luciferase reduction.” For some assays that were aimed at confirming results of the initial screens, the same amount of Bright-Glo™ reagent was applied to each well in 96-well plates and signals were detected with the GloRunner™ Microplate Luminometer (Turner Biosystems) using the Dual-Glo® luciferase assay according to the manufacturer's recommendations (E1910, Promega).\nIn the secondary screen, cells were plated in a 96-well plate as described above for the primary screen.\nSome compounds were unavailable outside of the library collections, and could not be further tested.\nEach compound and concentration was analyzed in quadruplicate wells.\nCompounds were tested at eight different concentrations ranging from 0-20 μM. In addition, GFAP protein levels were measured using a sandwich ELISA, which has greater sensitivity and is more accurate than the cell-based ELISA used in the primary screens."}, "mGFAP protein": {"test_system": "mGFAP protein", "test": "cell-based GFAP protein level assay (cell-based ELISA) in 172.9 cells", "parameters": "species or system mouse", "conditions": "tertiary screen; 48 hr exposure; at the MTDcc"}, "GFAP promoter": {"test_system": "GFAP promoter", "test": "GFAP promoter activity in brain of Tg172.9 mice (Dual-Glo luciferase assay)", "type": "in vivo, mouse", "experimental": "Controls were injected with vehicle only. Brains were collected at various times post-injection, and analyzed for GFAP promoter activity using the Dual-Glo assay. Graphs present the mean±SEM (n=4 at each data point). Statistical significance was evaluated by unpaired t-test (* p<0.05). […] Brains were collected at 6 hours post-injection and analyzed for GFAP promoter activity using the Dual-Glo assay. Graphs present the mean±SD (n=4 at each data point). Statistical significance was evaluated by unpaired t-test (* p<0.05).\n(§1) Another group of mice were injected with the same volume of vehicle alone (n=15). Brains were bisected sagittally with one half analyzed for GFAP promoter activity using the Dual-Glo assay, and the other half analyzed for GFAP protein using the sandwich ELISA. FIG. 7A is a bar graph showing hGFAP promoter activity of clomipramine-treated mice. The mice show a 26% reduction in hGFAP promoter activity compared to vehicle-treated controls. FIG. 7B is a bar graph showing the GFAP protein levels of clomipramine-treated mice. The mice show a 57% reduction in total GFAP content compared to vehicle-treated controls. Graphs present the mean±SD (* p<0.05, ***p<0.001, unpaired t-test).\n(§2) At various times after injection, from 0-48 hours, brains were harvested for measurement of GFAP promoter activity using the Dual-Glo luciferase assay, and GFAP protein using a sandwich ELISA.\n(§3) Injections were given in the afternoon, between 3-5 PM. Controls were transgenic littermates injected with vehicle alone. At the end of the three week course of injections (and one day after the last injection), brains were harvested for analysis of GFAP promoter activity and protein levels as described above.\nTo achieve significant reductions of GFAP protein in vivo may require chronic treatments, given the slow turnover of this protein. […] Controls were injected with vehicle alone. One day after the last injection, brains were harvested and assayed for both GFAP promoter activity and GFAP protein."}, "GFAP protein": {"test_system": "GFAP protein", "test": "GFAP protein in brain of Tg172.9 mice (sandwich ELISA)", "type": "in vivo, mouse", "experimental": "as §1, §2, §3\nTo achieve significant reductions of GFAP protein in vivo may require chronic treatments, given the slow turnover of this protein. […] Controls were injected with vehicle alone. […]"}, "[2]": {"test": "pilot studies with daily injections of clomipramine (tolerability)", "type": "in vivo, mouse", "conditions": "daily injections of 40 mg/kg; after 2 weeks"}, "[3]": {"conditions": "sometimes considered in combination with desmethyl-clomipramine; cited from earlier work"}, "[4]": {"conditions": "40 mg/kg IP every other day for 3 weeks"}}, "note": "Values joined by “and” are separate entries in the source; they are usually repeats but may differ in a detail not shown here. Equal entries are not always repeated.", "data": [{"smiles": "CN(C)CCCN1c2ccccc2CCc2ccc(Cl)cc21", "note": "[clomipramine]", "values": [{"measurement": "concentrations found effective in cultured astrocytes", "setting": "[1]; cultured astrocytes", "value": "5 to 10", "unit": "µM"}, {"measurement": "reductions in luciferase activity", "setting": "[1]; quaternary screen, 10 days of exposure, 0-20 μM", "value": "consistent reductions"}, {"measurement": "% GFAP reductions, luciferace expression from hGFAP promoter", "setting": "[1]; tertiary screen, 48 hr exposure, at the MTDcc", "value": 66, "unit": "%"}, {"measurement": "% GFAP reductions, mGFAP protein via ELISA", "setting": "mGFAP protein", "value": 20.6, "unit": "%"}, {"measurement": "reduction in GFAP promoter activity compared to vehicle-treated controls", "setting": "GFAP promoter; [4]", "value": 26, "unit": "%"}, {"measurement": "time at which promoter activity returned to normal", "setting": "GFAP promoter; single 40 mg/kg IP, brain", "value": "≤ 24", "unit": "h"}, {"measurement": "time of peak reduction in promoter activity after injection", "setting": "GFAP promoter; single 40 mg/kg IP, brain", "value": "4 to 6", "unit": "h"}, {"measurement": "reduction in promoter activity", "setting": "GFAP promoter; single injection of 40 mg/kg IP, brains collected at 4 hours after injection", "value": 38, "unit": "%"}, {"measurement": "effect on promoter activity", "setting": "GFAP promoter; single injection, doses of 5-20 mg/kg IP", "value": "without effect"}, {"measurement": "reduction in GFAP protein compared to vehicle-treated controls", "setting": "GFAP protein; [4]", "value": "57% and ~50%"}, {"measurement": "changes in GFAP protein levels", "setting": "GFAP protein; acute treatment, single IP injection, 0-48 hours", "value": "no changes"}, {"measurement": "side effect of daily injections", "setting": "[2]", "value": "weight loss"}, {"measurement": "plasma concentration considered therapeutic in humans", "setting": "[3]", "value": "300 to 1750", "unit": "nM"}]}]}
